Reference: paper PMC11082890, “Phenazine Cations as Anticancer Theranostics” (Journal of the American Chemical Society, 2024)

What was measured:
Assay in all cases: MTT cytotoxicity assay, 48 h
Assay type in all cases: cell-based
[1] = tested on: A2780 human ovarian cancer cells; conditions: A2780, 48 h treatment, value (S.D.)
Description: (§1) First, the cytotoxicity of 1^2+ and 2^2+ toward several cancer cell lines was examined. The viability of cells exposed to their chloride salts was assessed by an MTT (3-(4,5-dimethylthiazol-2-yl)-2,5-diphenyltetrazolium bromide) assay, and the common chemotherapeutic agent cisplatin was employed as a positive control, Figure 3.
(§2) S2. Tissue Culture and Microscopy Methods
(§3) Cell media was purchased sterile from Sigma-Aldrich. A2780 human ovarian cancer cells and A2780CIS human ovarian cisplatin resistant cells were cultured in RPMI-1640 medium. MCF7 human breast cancer cells, T24 human bladder cancer cells and HEK293 human embryonic kidney cells were cultured in DMEM medium. All growth medium was supplemented with 10 % fetal bovine serum (FBS), 2 mM L-Glutamine, 100 IU mL-1 penicillin and 100 μg mL-1 streptomycin and sterile filtered before use. Cell cultures were grown by incubation at 37 ᵒC with 5 % CO2 and were frequently passaged with trypsin when confluency of around 80 % was reached.
(§4) All cells used were at passage numbers below 50.
(§5) S2b. Preparation of Compounds
(§6) Stock solutions of compounds were solubilized in 10 % PBS (Phosphate Buffer Saline) and 90 % media.
(§7) Solutions were then sterile filtered through a 0.22 μm filter prior to use.
(§8) S2c. Cytotoxicity (MTT Assay) and Determination of IC50 Values
(§9) MTT (3-(4,5-Dimethylthiazol2-yl)-2,5-diphenyltetrazolium bromide)) is a yellow tetrazolium salt that is reduced to formazan in metabolically active cells. Therefore, the purple coloured formazan can be dissolved and quantified through absorbance as a measure of cell viability. Cells were seeded in 48 well plates at a density of 5 x 10^4 cells per well and incubated for 24 hours prior to treatment. After 24 hours, compound (10 % PBS:
(§10) 90 % medium) was added over a concentration gradient from 0.1 to 100 μM with each concentration in triplicate. Some wells were treated with a concentration range of cisplatin as a positive control. Cells were incubated with the relevant concentrations of compound for 48 hours, after which the media was removed and replaced with MTT (0.5 mg mL-1 in serum-free medium) for a period of 30-45 minutes. The MTT solution was then carefully removed and the formazan eluted with isopropanol (130 μL per well). 100 μL from each well was transferred into a 96 well plate to enable quantification of cell viability using a plate reader measuring absorbance at 570 nm. An average absorbance was obtained for each concentration and the cell viability was then calculated as a percentage of the untreated negative control wells. A graph of cell viability against concentration was plotted and the IC50 (the concentration at which the cell viability is 50 %) determined by interpolation. The IC50 values are reported as an average of at least 3 independent biological replicates. […]
(§11) All plates were then incubated for another 24 hours following light treatment. Media was then removed from each well and replaced with MTT (0.5 mg mL-1 in serum-free medium) for 30-45 minutes. […]
(§12) The data was then plotted as a graph of cell viability against concentration to determine the IC50 values by interpolation before and after light treatment.

[2] = tested on: A2780CIS human ovarian cisplatin resistant cells; conditions: 48 h treatment, value (S.D.)
Description: as §1, §2, §3, §4, §5, §6, §7, §8, §9, §10, §11, §12

[3] = tested on: HEK293 human embryonic kidney cells; conditions: HEK293 noncancerous cells, 48 h treatment, value (S.D.)
Description: as §1, §2, §3, §4, §5, §6, §7, §8, §9, §10, §11, §12

[4] = tested on: MCF7 human breast cancer cells; conditions: MCF7, 48 h treatment, value (S.D.)
Description: as §1, §2, §3, §4, §5, §6, §7, §8, §9, §10, §11, §12

[5] = tested on: T24 human bladder cancer cells; conditions: T24, 48 h treatment, value (S.D.)
Description: as §1, §2, §3, §4, §5, §6, §7, §8, §9, §10, §11, §12

## N.N.[Cl][Pt][Cl] [cisplatin]
[1]
  IC50: 1.3 µM
[2]
  IC50: 19 µM
[3]
  IC50: 5 µM
[4]
  IC50: 26 µM
[5]
  IC50: 3 µM
